Experimental data: patent US9540358B2, “Tricyclic compounds as anticancer agents” (ICAHN SCHOOL OF MEDICINE AT MOUNT SINAI, priority 2011, dated 2017)

Test system: H1650 lung cancer cells
Assay: Cell viability assay (MTT, IC50 determination)
Format: cell-based
Conditions: MTT; for IC50: Homo sapiens, NCI-H1650, 48 hours after drug treatment
Procedure: 89(22): p. […] H1650 lung cancer cells were plated at 150,000 cells per well in a 12 well plate. Twenty-four hours after plating, cells were treated as described with increasing concentrations of drug and control. Forty-eight hours after drug treatment, cells were treated with 100 μL of 3-(4,5-Dimethylthiazol-2-yl)-2,5-diphenyltetrazolium bromide (MTT) and incubated for 2 hours at 37 C. The MTT solution was subsequently replaced with 300 μL of n-propyl alcohol and re-aliquoted to a 96 well plates. Spectrophotometric analysis of each solution was performed using a 96 well plate reader at 600 nm in triplicate.

| SMILES | IC50 [µM] | IC50 (Cell Viability Data) (48 hours after drug treatment) |
| --- | --- | --- |
| O=S(=O)(NCCCN1c2ccccc2CCc2ccc(Cl)cc21)c1ccc(Cl)cc1Cl [Example 26, 2,4-dichloro-N-(3-(3-chloro-10,11-dihydro-5H-dibenzo[b,f]azepin-5-yl)propyl)benzenesulfonamide] | > 40 | – |
| O=S(=O)(NCCCN1c2ccccc2CCc2ccc(Cl)cc21)c1ccc(Cl)cc1F [Example 28, N-(3-(3-chloro-10,11-dihydro-5H-dibenzo[b,f]azepin-5-yl)propyl)-4-chloro-2-fluorobenzenesulfonamide] | – | INACTIVE |
| O=S(=O)(NCCCN1c2ccccc2CCc2ccc(Cl)cc21)c1ccc(Cl)c(Cl)c1 [Example 29, 3,4-dichloro-N-(3-(3-chloro-10,11-dihydro-5H-dibenzo[b,f]azepin-5-yl)propyl)benzenesulfonamide] | ~25 | – |
| O=S(=O)(NCCN1c2ccccc2CCc2ccc(Cl)cc21)c1ccc(Cl)cc1 [Example 33, 4-chloro-N-(2-(3-chloro-10,11-dihydro-5H-dibenzo[b,f]azepin-5-yl)ethyl)benzenesulfonamide] | ~20 | – |
| O=S(=O)(NCCN1c2ccccc2CCc2ccc(Cl)cc21)c1ccc(C(F)(F)F)cc1 [Example 34, N-(2-(3-chloro-10,11-dihydro-5H-dibenzo[b,f]azepin-5-yl)ethyl)-4-(trifluoromethyl)benzenesulfonamide] | ~20 | – |
| O=S(=O)(NCCCN1c2ccccc2CCc2ccccc21)c1ccc(Cl)cc1 [Example 35, 4-chloro-N-(3-(10,11-dihydro-5H-dibenzo[b,f]azepin-5-yl)propyl)benzenesulfonamide] | ~20 | – |
| O=S(=O)(NCCCN1c2ccccc2CCc2ccccc21)c1ccc(C(F)(F)F)cc1 [Example 36, N-(3-(10,11-dihydro-5H-dibenzo[b,f]azepin-5-yl)propyl)-4-(trifluoromethyl)benzenesulfonamide] | ~15 | – |
| O=S(=O)(NCCN1c2ccccc2CCc2ccc(Cl)cc21)c1ccc(OC(F)(F)F)cc1 [Example 37, N-(2-(3-chloro-10,11-dihydro-5H-dibenzo[b,f]azepin-5-yl)ethyl)-4-(trifluoromethoxy)benzenesulfonamide] | ~25 | – |
| O=S(=O)(NCCCN1c2ccccc2CCc2cc(Cl)ccc21)c1ccc(C(F)(F)F)cc1 [Example 38, N-(3-(2-chloro-10,11-dihydro-5H-dibenzo[b,f]azepin-5-yl)propyl)-4-(trifluoromethyl)benzenesulfonamide] | ~10 | – |
| O=S(=O)(NCCCN1c2ccccc2CCc2ccc(Cl)cc21)c1cccc(C(F)(F)F)c1 [Example 39, N-(3-(3-chloro-10,11-dihydro-5H-dibenzo[b,f]azepin-5-yl)propyl)-3-trifluoromethylbenzenesulfonamide] | ~10 | – |
| O=[N+]([O-])c1ccc(S(=O)(=O)NCCCN2c3ccccc3CCc3ccc(Cl)cc32)cc1 [Example 40, N-(3-(3-chloro-10,11-dihydro-5H-dibenzo[b,f]azepin-5-yl)propyl)-4-nitrobenzenesulfonamide] | ~15 | – |
| O=S(=O)(NCCN1c2ccccc2Sc2ccc(Cl)cc21)c1ccc(C(F)(F)F)cc1 [Example 41, 4-trifluoromethyl-N-(2-(2-chloro-10H-phenothiazin-10-yl)ethyl)benzenesulfonamide] | ~25 | – |
| O=S(=O)(NCCN1c2ccccc2Sc2ccc(Cl)cc21)c1ccc(OC(F)(F)F)cc1 [Example 42, 4-trifluoromethoxy-N-(2-(2-chloro-10H-phenothiazin-10-yl)ethyl)benzenesulfonamide] | ~25 | – |
| Nc1ccc2c(c1)N(CCCNS(=O)(=O)c1ccc(C(F)(F)F)cc1)c1ccccc1CC2 [Example 43, N-(3-(3-amino-10,11-dihydro-5H-dibenzo[b,f]azepin-5-yl)propyl)-4-(trifluoromethyl)benzenesulfonamide] | ~35 | – |
| [N-]=[N+]=Nc1ccc2c(c1)N(CCCNS(=O)(=O)c1ccc(C(F)(F)F)cc1)c1ccccc1CC2 [Example 44, N-(3-(3-azido-10,11-dihydro-5H-dibenzo[b,f]azepin-5-yl)propyl)-4-(trifluoromethyl)benzenesfulfonamide] | ~30 | – |
| O=S(=O)(NCCCN1c2ccccc2CCc2ccc(Cl)cc21)c1ccccc1 [Example 45, N-(3-(3-chloro-10,11-dihydro-5H-dibenzo[b,f]azepin-5-yl)propyl)benzenesulfonamide] | ~25 | – |
| O=S(=O)(NCCN1c2ccccc2Sc2ccccc21)c1ccc(OC(F)(F)F)cc1 [Example 46, N-(2-(10H-phenothiazin-10-yl)ethyl)-4-trifluoromethoxybenzenesulfonamide] | ~30 | – |
| O=S(=O)(NCCN1c2ccccc2Sc2ccccc21)c1ccc(Cl)cc1 [Example 47, N-(2-(10H-phenothiazin-10-yl)ethyl)-4-chlorobenzenesulfonamide] | ~30 | – |

| SMILES | IC50 [µM] | IC50 (Cell Viability Data) (48 hours after drug treatment) |
| --- | --- | --- |
| O=S(=O)(NCCC=C1c2ccccc2CCc2ccccc21)c1ccc(Cl)cc1 [Example 50, 4-Chloro-N-(3-(10,11-dihydro-5H-dibenzo[a,d][7]annulen-5-ylidene)propyl)benzenesulfonamide] | ~15 | – |
| O=S(=O)(NCCC=C1c2ccccc2CCc2ccccc21)c1ccc(OC(F)(F)F)cc1 [Example 51, N-(3-(10,11-dihydro-5H-dibenzo[a,d][7]annulen-5-ylidene)propyl)-4-(trifluoromethoxy)benzenesulfonamide] | ~20 | – |
| O=S(=O)(NCCCN1c2ccc(Cl)cc2CCc2cc(Cl)ccc21)c1ccc(Cl)cc1 [Example 52, 4-Chloro-N-(3-(2,8-dichloro-10,11-dihydro-5H-dibenzo[b,f]azepin-5-yl)propyl)benzenesulfonamide] | ~10 | – |
| O=S(=O)(NCCCN1c2ccc(Cl)cc2CCc2cc(Cl)ccc21)c1ccc(OC(F)(F)F)cc1 [Example 53, 4-Trifluoromethoxy-N-(3-(2,8-dichloro-10,11-dihydro-5H-dibenzo[b,f]azepin-5-yl)propyl)benzenesulfonamide] | ~10 | – |
| O=S(=O)(NCCCN1c2ccccc2CCc2ccc(Cl)cc21)c1cccc(OC(F)(F)F)c1 [Example 54, N-(3-(3-chloro-10,11-dihydro-5H-dibenzo[b,f]azepin-5-yl)propyl)-3-(trifluoromethoxy)benzenesulfonamide] | ~15 | – |
| O=S(=O)(NCCNC1c2ccccc2CCc2ccccc21)c1ccc(Cl)cc1 [Example 55, 4-Chloro-N-(2-((10,11-dihydro-5H-dibenzo[a,d][7]annulen-5-yl)amino)ethyl)benzenesulfonamide] | ~25 | – |
| O=S(=O)(NCCNC1c2ccccc2CCc2ccccc21)c1ccc(OC(F)(F)F)cc1 [Example 56, 4-Trifluoromethoxy-N-(2-((10,11-dihydro-5H-dibenzo[a,d][7]annulen-5-yl)amino)ethyl)benzenesulfonamide] | ~25 | – |
| O=S(=O)(NCC(O)CN1c2ccccc2CCc2ccc(Cl)cc21)c1ccc(Cl)cc1 (stereo not drawn) [Example 57, 4-Chloro-N-(3-(3-chloro-10,11-dihydro-5H-dibenzo[b,f]azepin-5-yl)-2-hydroxypropyl)benzenesulfonamide] | ~10 | – |
| O=S(=O)(NCC(O)CN1c2ccccc2CCc2ccc(Cl)cc21)c1ccc(OC(F)(F)F)cc1 (stereo not drawn) [Example 58, 4-Trifluoromethoxy-N-(3-(3-chloro-10,11-dihydro-5H-dibenzo[b,f]azepin-5-yl)-2-hydroxypropyl)benzenesulfonamide] | ~5 | – |
| O=S(=O)(NCC(O)CN1c2ccccc2CCc2ccccc21)c1ccc(Cl)cc1 (stereo not drawn) [Example 59, 4-Chloro-N-(3-(10,11-dihydro-5H-dibenzo[b,f]azepin-5-yl)-2-hydroxypropyl)benzenesulfonamide] | ~25 | – |
| O=S(=O)(NCCCN1c2ccccc2CCc2ccc(Cl)cc21)c1cc(Cl)c(Cl)s1 [Example 61, 4,5-dichloro-N-(3-(3-chloro-10,11-dihydro-5H-dibenzo[b,f]azepin-5-yl)propyl)thiophene-2-sulfonamide] | ~20 | – |
| O=S(=O)(NCCCN1c2ccccc2CCc2ccc(Cl)cc21)c1cc(Cl)sc1Cl [Example 62, 2,5-dichloro-N-(3-(3-chloro-10,11-dihydro-5H-dibenzo[b,f]azepin-5-yl)propyl)thiophene-3-sulfonamide] | ~25 | – |
| O=C(CNS(=O)(=O)c1ccc(OC(F)(F)F)cc1)CN1c2ccccc2CCc2ccccc21 [Example 64, N-(3-(10,11-dihydro-5H-dibenzo[b,f]azepin-5-yl)-2-oxopropyl)-4-(trifluoromethoxy)benzenesulfonamide] | ~35 | – |
| N#CC(CNS(=O)(=O)c1ccc(OC(F)(F)F)cc1)CN1c2ccccc2CCc2ccccc21 (stereo not drawn) [Example 65, N-(2-cyano-3-(10,11-dihydro-5H-dibenzo[b,f]azepin-5-yl)propyl)-4-(trifluoromethoxy)benzenesulfonamide] | ~15 | – |
| CC(CNS(=O)(=O)c1ccc(OC(F)(F)F)cc1)CN1c2ccccc2CCc2ccccc21 (stereo not drawn) [Example 67, N-(3-(10,11-dihydro-5H-dibenzo[b,f]azepin-5-yl)-2-methylpropyl)-4-(trifluoromethoxy)benzenesulfonamide] | ~20 | – |
| CC(CNS(=O)(=O)c1ccc(Cl)cc1)CN1c2ccccc2CCc2ccccc21 (stereo not drawn) [Example 68, 4-Chloro-N-(3-(10,11-dihydro-5H-dibenzo[b,f]azepin-5-yl)-2-methylpropyl)benzenesulfonamide] | ~20 | – |
| O=S(=O)(NCCCN1c2ccccc2CCc2cccc(Cl)c21)c1ccc(OC(F)(F)F)cc1 [Example 69, N-(3-(4-chloro-10,11-dihydro-5H-dibenzo[b,f]azepin-5-yl)propyl)-4-(trifluoromethoxy)benzenesulfonamide] | ~20 | – |
| O=S(=O)(NCCCN1c2ccccc2CCc2cccc(Cl)c21)c1ccc(Cl)cc1 [Example 70, 4-Chloro-N-(3-(4-chloro-10,11-dihydro-5H-dibenzo[b,f]azepin-5-yl)propyl)benzenesulfonamide] | ~20 | – |
